Laboratory results published in the supplement of paper PMC10307832.

Legend:
Assay in all cases: relative viability (nuclei count vs DMSO), 5 days (fraction); higher = more cells survive
NCI-H23 = system: NCI-H23
In short: (§1)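 Lung cancer cell lines in 1536-well plates were dosed by pin tool the day after seeding, either with one drug alone or with a fixed anchor-drug dose plus five library-drug doses (not always all listed) in √10 steps. After 5 days, cells were fixed and their nuclei stained in one step (final 0.05% Triton X-100, 1% formaldehyde, 1 ug/ml Hoechst), then counted on 4× images. Relative viability is the nuclei count in treated wells divided by that in vehicle wells. Values are medians of duplicate plates.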

NCI-H322M = system: NCI-H322M
In short: as §1

EBC-1 = system: EBC-1
In short: as §1

Calu-6 = system: Calu-6
In short: as §1

NCI-H596 = system: NCI-H596
In short: as §1

NCI-H1355 = system: NCI-H1355
In short: as §1

NCI-H1993 = system: NCI-H1993
In short: as §1

NCI-H1299 = system: NCI-H1299
In short: as §1

IA-LM = system: IA-LM
In short: as §1

UMC-11 = system: UMC-11
In short: as §1

NCI-H1703 = system: NCI-H1703
In short: as §1

LCLC-97TM1 = system: LCLC-97TM1
In short: as §1

Compound: COc1cc2nccc(Oc3ccc(NC(=O)Nc4cc(C)on4)c(Cl)c3)c2cc1OC [Tivozanib] + CC(C)C[C@H](NC(=O)[C@H](Cc1ccccc1)NC(=O)c1cnccn1)B(O)O [Bortezomib] (partner 0.002 µM)
- relative viability (NCI-H23; first compound 0.005 µM): 0.946
- relative viability (NCI-H23; first compound 0.01581 µM): 0.975
- relative viability (NCI-H23; first compound 0.05 µM): 1.1
- relative viability (NCI-H23; first compound 0.1581 µM): 0.785
- relative viability (NCI-H23; first compound 0.5 µM): 0.839
- relative viability (NCI-H322M; first compound 0.005 µM): 1.24
- relative viability (NCI-H322M; first compound 0.01581 µM): 1.21
- relative viability (NCI-H322M; first compound 0.05 µM): 1.18
- relative viability (NCI-H322M; first compound 0.1581 µM): 1.05
- relative viability (NCI-H322M; first compound 0.5 µM): 1.28
- relative viability (EBC-1; first compound 0.005 µM): 0.5
- relative viability (EBC-1; first compound 0.01581 µM): 0.561
- relative viability (EBC-1; first compound 0.05 µM): 0.624
- relative viability (EBC-1; first compound 0.1581 µM): 0.511
- relative viability (EBC-1; first compound 0.5 µM): 0.477
- relative viability (Calu-6; first compound 0.005 µM): 0.904
- relative viability (Calu-6; first compound 0.01581 µM): 1.08
- relative viability (Calu-6; first compound 0.05 µM): 0.986
- relative viability (Calu-6; first compound 0.1581 µM): 0.965
- relative viability (Calu-6; first compound 0.5 µM): 0.95
- relative viability (NCI-H596; first compound 0.005 µM): 1.03
- relative viability (NCI-H596; first compound 0.01581 µM): 0.887
- relative viability (NCI-H596; first compound 0.05 µM): 0.918
- relative viability (NCI-H596; first compound 0.1581 µM): 0.993
- relative viability (NCI-H596; first compound 0.5 µM): 1.08
- relative viability (NCI-H1355; first compound 0.005 µM): 1.09
- relative viability (NCI-H1355; first compound 0.01581 µM): 1.17
- relative viability (NCI-H1355; first compound 0.05 µM): 1.26
- relative viability (NCI-H1355; first compound 0.5 µM): 1.14
- relative viability (NCI-H1993; first compound 0.005 µM): 0.981
- relative viability (NCI-H1993; first compound 0.01581 µM): 1.02
- relative viability (NCI-H1993; first compound 0.05 µM): 1.39
- relative viability (NCI-H1993; first compound 0.1581 µM): 0.647
- relative viability (NCI-H1993; first compound 0.5 µM): 1.13
- relative viability (NCI-H1299; first compound 0.005 µM): 1.05
- relative viability (NCI-H1299; first compound 0.01581 µM): 1.02
- relative viability (NCI-H1299; first compound 0.05 µM): 1.01
- relative viability (NCI-H1299; first compound 0.1581 µM): 1.06
- relative viability (NCI-H1299; first compound 0.5 µM): 0.958
- relative viability (IA-LM; first compound 0.005 µM): 0.716
- relative viability (IA-LM; first compound 0.01581 µM): 0.812
- relative viability (IA-LM; first compound 0.05 µM): 0.821
- relative viability (IA-LM; first compound 0.1581 µM): 0.623
- relative viability (IA-LM; first compound 0.5 µM): 0.614
- relative viability (UMC-11; first compound 0.005 µM): 0.579
- relative viability (UMC-11; first compound 0.01581 µM): 0.723
- relative viability (UMC-11; first compound 0.05 µM): 0.911
- relative viability (UMC-11; first compound 0.5 µM): 0.668
- relative viability (NCI-H1703; first compound 0.005 µM): 0.247
- relative viability (NCI-H1703; first compound 0.01581 µM): 0.186
- relative viability (NCI-H1703; first compound 0.05 µM): 0.154
- relative viability (NCI-H1703; first compound 0.1581 µM): 0.167
- relative viability (NCI-H1703; first compound 0.5 µM): 0.164
- relative viability (LCLC-97TM1; first compound 0.005 µM): 0.533
- relative viability (LCLC-97TM1; first compound 0.01581 µM): 0.584
- relative viability (LCLC-97TM1; first compound 0.05 µM): 0.913
- relative viability (LCLC-97TM1; first compound 0.1581 µM): 0.603
- relative viability (LCLC-97TM1; first compound 0.5 µM): 1
